Counter-ions that a name gives are not always drawn.
target: human NaV 1.8 (Homo sapiens, UniProt Q9Y5Y9); assay: E-VIPR assay detecting and measuring NaV inhibition properties; format: cell-based; conditions: HEK cells expressing truncated human NaV 1.8; in the presence of human serum (compound numbers followed by *); read-out: IC50 in the E-VIPR Assay, performed in the presence of human serum
Method in brief: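 HEK cells expressing truncated, fully active human NaV1.8, with KIR2.1 BacMam co-transduction, were loaded with CC2-DMPE/DiSBAC6(3) voltage-sensing dyes for 20 min at room temperature. Compounds were tested in 11-point 3-fold dilutions (300 nM top final), optionally with 25% human serum, under electrical stimulation with FRET read-out.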

Sequence of human NaV 1.8 (Q9Y5Y9 126-399 limits assumed): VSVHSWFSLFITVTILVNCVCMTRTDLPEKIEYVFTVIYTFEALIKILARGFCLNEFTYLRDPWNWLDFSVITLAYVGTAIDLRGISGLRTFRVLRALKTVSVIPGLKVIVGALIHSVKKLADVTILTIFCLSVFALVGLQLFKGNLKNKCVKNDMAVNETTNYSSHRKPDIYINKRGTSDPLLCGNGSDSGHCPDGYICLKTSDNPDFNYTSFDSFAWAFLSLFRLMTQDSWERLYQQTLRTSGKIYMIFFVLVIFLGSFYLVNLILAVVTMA
Sequence of human NaV 1.8 (Q9Y5Y9 660-890 limits assumed): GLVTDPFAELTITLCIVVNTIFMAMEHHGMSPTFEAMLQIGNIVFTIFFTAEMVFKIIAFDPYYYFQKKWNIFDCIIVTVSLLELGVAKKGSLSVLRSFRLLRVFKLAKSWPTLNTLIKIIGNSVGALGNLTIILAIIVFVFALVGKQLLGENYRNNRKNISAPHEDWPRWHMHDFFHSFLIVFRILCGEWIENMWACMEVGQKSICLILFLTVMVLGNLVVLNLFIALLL
Sequence of human NaV 1.8 (Q9Y5Y9 1148-1722 limits assumed): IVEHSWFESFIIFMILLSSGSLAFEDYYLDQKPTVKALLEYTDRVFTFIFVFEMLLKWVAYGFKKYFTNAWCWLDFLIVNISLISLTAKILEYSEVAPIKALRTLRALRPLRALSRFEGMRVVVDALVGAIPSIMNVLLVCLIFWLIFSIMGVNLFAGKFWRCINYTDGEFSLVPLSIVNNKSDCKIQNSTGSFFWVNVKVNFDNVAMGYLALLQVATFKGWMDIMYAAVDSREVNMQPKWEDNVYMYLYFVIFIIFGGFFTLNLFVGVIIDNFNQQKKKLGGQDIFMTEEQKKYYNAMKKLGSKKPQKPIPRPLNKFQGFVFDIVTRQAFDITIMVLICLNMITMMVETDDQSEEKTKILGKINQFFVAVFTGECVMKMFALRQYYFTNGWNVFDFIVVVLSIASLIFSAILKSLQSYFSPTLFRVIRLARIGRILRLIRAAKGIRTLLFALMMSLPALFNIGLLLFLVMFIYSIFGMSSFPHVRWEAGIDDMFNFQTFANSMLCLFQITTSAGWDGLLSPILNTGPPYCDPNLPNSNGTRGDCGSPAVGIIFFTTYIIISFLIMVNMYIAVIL

Question: For `C[C@H]1[C@@H](c2ccc(F)c(F)c2OC(F)F)[C@H](C(=O)Nc2cncc(C#N)c2)O[C@@]1(C)C(F)(F)F` (single isomer, unassigned) [Compound 70], which IC50 is on record?
Answer: The IC50 was 100 to 1000 nM.

Question: `CCc1c(F)ccc([C@H]2C[C@@](C)(C(F)(F)F)O[C@@H]2C(=O)Nc2cn(S(C)(=O)=O)nc2C)c1OC` (stereo in doubt) [Compound 716, rel-(2S,3R,5S)-3-(3-ethyl-4-fluoro-2-methoxyphenyl)-5-methyl-N-(3-methyl-1-(methylsulfonyl)-1H-pyrazol-4-yl)-5-(trifluoromethyl)tetrahydrofuran-2-carboxamide] was tested. Which IC50 did it give?
Answer: The IC50 was no less than 1000 nM.

same assay, conditions: HEK cells expressing truncated human NaV 1.8; no human serum; read-out: IC50 in the E-VIPR Assay

Question: With `COc1c([C@H]2[C@H](C(=O)Nc3cn(S(C)(=O)=O)nc3C)O[C@@](C)(C(F)(F)F)[C@H]2C)ccc(F)c1F` [Compound 180, (2R,3S,4S,5R)-3-(3,4-difluoro-2-methoxyphenyl)-4,5-dimethyl-N-(3-methyl-1-(methylsulfonyl)-1H-pyrazol-4-yl)-5-(trifluoromethyl)tetrahydrofuran-2-carboxamide] as the molecule, how does the IC50 read?
Answer: Its IC50 is less than 10 nM.

Question: For `COc1c([C@H]2[C@H](C(=O)Nc3ccc(-c4cnco4)nc3)O[C@@](C)(C(F)(F)F)[C@H]2C)ccc(F)c1F` [Compound 394, (2R,3S,4S,5R)-3-(3,4-difluoro-2-methoxyphenyl)-4,5-dimethyl-N-(6-(oxazol-5-yl)pyridin-3-yl)-5-(trifluoromethyl)-tetrahydrofuran-2-carboxamide], which IC50 is on record?
Answer: The IC50 was 100 to 1000 nM.

Question: For `COCCOc1c([C@H]2[C@H](C(=O)Nc3ccnc(N4C(=O)CN(C)C[C@H]4C)c3)O[C@@](C)(C(F)(F)F)[C@H]2C)ccc(F)c1F` [Compound 652, (2R,3S,4S,5R)-3-[3,4-difluoro-2-(2-methoxyethoxy)phenyl]-N-[2-[(2R)-2,4-dimethyl-6-oxo-piperazin-1-yl]-4-pyridyl]-4,5-dimethyl-5-(trifluoromethyl)tetrahydrofuran-2-carboxamide], which IC50 is on record?
Answer: Its IC50 is less than 10 nM.

Question: `C[C@H]1[C@@H](c2ccc(F)c(F)c2OCC2COC2)[C@H](C(=O)Nc2ccc(C(C)(C)O)nc2)O[C@@]1(C)C(F)(F)F` [Compound 581, (2R,3S,4S,5R)-3-(3,4-difluoro-2-(oxetan-3-ylmethoxy)phenyl)-N-(6-(2-hydroxypropan-2-yl)pyridin-3-yl)-4,5-dimethyl-5-(trifluoromethyl)tetrahydrofuran-2-carboxamide (TFA salt)] was tested. Which IC50 did it give?
Answer: The IC50 was 100 to 1000 nM.

Question: `COc1c(C2C(C(=O)Nc3cccc(P(C)(C)=O)c3)OC(C)(C(F)(F)F)C2C)ccc(F)c1F` (single isomer, unassigned) [Compound 41, 3-(3,4-difluoro-2-methoxy-phenyl)-N-(3-dimethylphosphorylphenyl)-4,5-dimethyl-5-(trifluoromethyl)tetrahydrofuran-2-carboxamide] was tested. Which IC50 did it give?
Answer: The IC50 was no less than 1000 nM.

Question: With `CNC(COC)c1cc(NC(=O)[C@@H]2O[C@@](C)(C(F)(F)F)[C@@H](C)[C@H]2c2ccc(F)c(F)c2OC)ccn1` (single isomer, unassigned) [Compound 412, rel-(2R*,3S*,4S*,5R*)-3-(3,4-difluoro-2-methoxyphenyl)-N-(2-(2-methoxy-1-(methylamino)ethyl)-pyridin-4-yl)-4,5-dimethyl-5-(trifluoromethyl)-tetrahydrofuran-2-carboxamide] as the molecule, how does the IC50 read?
Answer: The IC50 was less than 10 nM.

Question: `C[C@H]1[C@@H](c2ccc(F)c(F)c2OCC2(F)COC2)[C@H](C(=O)Nc2ccnc(CO)c2)O[C@@]1(C)C(F)(F)F` [Compound 645, (2R,3S,4S,5R)-3-(3,4-difluoro-2-((3-fluorooxetan-3-yl)methoxy)phenyl)-N-(2-(hydroxymethyl)pyridin-4-yl)-4,5-dimethyl-5-(trifluoromethyl)tetrahydrofuran-2-carboxamide] was tested. Which IC50 did it give?
Answer: The IC50 was 10 to 100 nM.

Question: How did the IC50 turn out when `COc1c([C@H]2[C@H](C(=O)Nc3ccnc(C(CO)OC)c3)O[C@@](C)(C(F)(F)F)[C@H]2C)ccc(F)c1F` (single isomer, unassigned) [Compound 248, rel-(2R*,3S*,4S*,5R*)-3-(3,4-difluoro-2-methoxyphenyl)-N-(2-(2-hydroxy-1-methoxyethyl)pyridin-4-yl)-4,5-dimethyl-5-(trifluoromethyl)tetrahydrofuran-2-carboxamide] was run?
Answer: Its IC50 is less than 10 nM.

Question: `COc1c([C@H]2[C@H](C(=O)NCC3CNC(=O)C3)O[C@@](C)(C(F)(F)F)[C@H]2C)ccc(F)c1F` (stereo partly drawn) [Compound 281, (2R,3S,4S,5R)-3-(3,4-difluoro-2-methoxyphenyl)-4,5-dimethyl-N-((5-oxopyrrolidin-3-yl)methyl)-5-(trifluoromethyl)tetrahydrofuran-2-carboxamide] was tested. Which IC50 did it give?
Answer: Its IC50 is 100 to 1000 nM.

Question: For `COCC(N)c1cc(NC(=O)[C@@H]2O[C@@](C)(C(F)(F)F)[C@@H](C)[C@H]2c2ccc(F)c(F)c2OC)ncn1` (single isomer, unassigned) [Compound 217], which IC50 is on record?
Answer: Its IC50 is 10 to 100 nM.

Question: `COc1c([C@H]2[C@H](C(=O)Nc3ccc(-c4ccccn4)nc3)O[C@@](C)(C(F)(F)F)[C@H]2C)ccc(F)c1F` [Compound 396, (2R,3S,4S,5R)-N-([2,2′-bipyridin]-5-yl)-3-(3,4-difluoro-2-methoxyphenyl)-4,5-dimethyl-5-(trifluoromethyl)-tetrahydrofuran-2-carboxamide] was tested. Which IC50 did it give?
Answer: The IC50 was no less than 1000 nM.

Question: With `C[C@H]1[C@@H](c2ccc(F)c(F)c2OCCO)[C@H](C(=O)Nc2ccnnc2)O[C@@]1(C)C(F)(F)F` [Compound 576, (2R,3S,4S,5R)-3-[3,4-difluoro-2-(2-hydroxyethoxy)phenyl]-4,5-dimethyl-N-pyridazin-4-yl-5-(trifluoromethyl)tetrahydrofuran-2-carboxamide] as the molecule, how does the IC50 read?
Answer: The IC50 was less than 10 nM.

Question: For `COc1ccc(NC(=O)[C@@H]2O[C@@](C)(C(F)(F)F)[C@@H](C)[C@H]2c2ccc(F)c(C(F)F)c2OC)cn1` (single isomer, unassigned) [Compound 167], which IC50 is on record?
Answer: Its IC50 is 10 to 100 nM.

Question: `Cc1nocc1NC(=O)[C@@H]1O[C@@](C)(C(F)(F)F)[C@@H](C)[C@H]1c1ccc(F)c(F)c1OCCN[C@@H]1CCOC1` [Compound 632, (2R,3S,4S,5R)-3-(3,4-difluoro-2-(2-(((R)-tetrahydrofuran-3-yl)amino)ethoxy)phenyl)-4,5-dimethyl-N-(3-methylisoxazol-4-yl)-5-(trifluoromethyl)tetrahydrofuran-2-carboxamide] was tested. Which IC50 did it give?
Answer: The IC50 was 10 to 100 nM.

Question: With `COc1c([C@H]2[C@H](C(=O)Nc3ccnc(C(C)(O)CF)c3)O[C@@](C)(C(F)(F)F)[C@H]2C)ccc(F)c1F` (single isomer, unassigned) [Compound 226, rel-(2R*,3S*,4S*,5R*)-3-(3,4-difluoro-2-methoxyphenyl)-N-(2-(1-fluoro-2-hydroxypropan-2-yl)pyridin-4-yl)-4,5-dimethyl-5-(trifluoromethyl)tetrahydrofuran-2-carboxamide] as the molecule, how does the IC50 read?
Answer: Its IC50 is less than 10 nM.

Question: For `C[C@H]1[C@@H](c2ccc(F)c(F)c2OCCO)[C@H](C(=O)Nc2ccnc(C(C)(C)O)c2)O[C@@]1(C)C(F)(F)F` [Compound 540, (2R,3S,4S,5R)-3-(3,4-difluoro-2-(2-hydroxyethoxy)phenyl)-N-(2-(2-hydroxypropan-2-yl)pyridin-4-yl)-4,5-dimethyl-5-(trifluoromethyl)tetrahydrofuran-2-carboxamide], which IC50 is on record?
Answer: The IC50 was less than 10 nM.

Question: `Cc1nocc1NC(=O)[C@@H]1O[C@@](C)(C(F)(F)F)[C@@H](C)[C@H]1c1ccc(F)c(F)c1OCCN1C[C@H]2COC[C@H]2C1` [Compound 634, (2R,3S,4S,5R)-3-(3,4-difluoro-2-(2-((3aR,6aS)-tetrahydro-1H-furo[3,4-c]pyrrol-5(3H)-yl)ethoxy)phenyl)-4,5-dimethyl-N-(3-methylisoxazol-4-yl)-5-(trifluoromethyl)tetrahydrofuran-2-carboxamide] was tested. Which IC50 did it give?
Answer: The IC50 was 10 to 100 nM.

From US20240368135A1 (VERTEX PHARMACEUTICALS INCORPORATED, priority 2021, published 2024)
